This is an account of results in US20250368649A1, “TETRAHYDROPYRIDOPYRIMIDINE PAN-KRAS INHIBITORS” (Mirati Therapeutics, Inc., priority 2022, published 2025).

One experiment has as its target KRas G12D (Homo sapiens, UniProt P01116, G12D). Kind of experiment: biochemical. Particulars: Binding to KRas (IC50 nM) G12D, TR-FRET displacement, KRas G12D.
Another experiment relates to H460 cells. Put plainly: Inhibition of KRas-mediated phosphorylation of ERK (Cisbio HTRF pERK), H460 cells. The following applies: Homo sapiens; for inhibition at 0.1 µM: NCI-H460, single point at 100 nM, 3 hrs compound incubation. The class given is cell-based.
The next experiment concerns the target KRas G12R (Homo sapiens, UniProt P01116, G12R). Kind of experiment: biochemical. The following applies: Binding to KRas (IC50 nM) G12R, TR-FRET displacement, KRas G12R.
For another experiment, the system named is A549 cells. Kind of experiment: Inhibition of KRas-mediated phosphorylation of ERK (Cisbio HTRF pERK), A549 cells. The class given is cell-based. Particulars: Homo sapiens; for inhibition at 0.1 µM: single point at 100 nM, 3 hrs compound incubation.
The subject of the next experiment is HCT116 cells. Put plainly: Inhibition of KRas-mediated phosphorylation of ERK (Cisbio HTRF pERK), HCT116 cells. The class given is cell-based. Particulars: Homo sapiens; for inhibition at 0.1 µM: HCT-116, single point at 100 nM, 3 hrs compound incubation.
A further experiment relates to ASPC1 cells. Kind of experiment: Inhibition of KRas-mediated phosphorylation of ERK (Cisbio HTRF pERK), ASPC1 cells. The class given is cell-based. The following applies: Homo sapiens, AsPC-1 cells; for IC50: ASPC1, 3 h, 3 hr compound incubation, Cisbio pERK HTRF; for inhibition at 0.1 µM: ASPC1, single point at 100 nM, 3 hrs compound incubation.
The test system of another experiment is H358 cells. Put plainly: Inhibition of KRas-mediated phosphorylation of ERK (Cisbio HTRF pERK), H358 cells. The class given is cell-based. Particulars: Homo sapiens; for inhibition at 0.1 µM: NCI-H358, single point at 100 nM, 3 hrs compound incubation.
The next experiment relates to H727 cells. Kind of experiment: Inhibition of KRas-mediated phosphorylation of ERK (Cisbio HTRF pERK), H727 cells. Particulars: Homo sapiens; for IC50: NCI-H727, 3 h, 3 hr compound incubation, Cisbio pERK HTRF; for inhibition at 0.1 µM: NCI-H727, single point at 100 nM, 3 hrs compound incubation. The class given is cell-based.
The subject of another experiment is MKN1 cells. Kind of experiment: Inhibition of KRas-mediated phosphorylation of ERK (Cisbio HTRF pERK), MKN1 cells. The class given is cell-based. The following applies: Homo sapiens, MKN-1, 3 hour compound incubation, Cisbio pERK HTRF. A digest of the protocol:
(§1)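 Growth medium is RPMI with 10% FBS, and each well receives 6,000 cells on the first day of the protocol.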

For the next experiment, the system named is PSN1 cells. Kind of experiment: Inhibition of KRas-mediated phosphorylation of ERK (Cisbio HTRF pERK), PSN1 cells. The class given is cell-based. Particulars: Homo sapiens, PSN1, 3 h, 3 hour compound incubation, Cisbio pERK HTRF. A digest of the protocol: as §1
The next experiment has as its target KRas G12V (Homo sapiens, UniProt P01116, G12V). Kind of experiment: biochemical. The following applies: Binding to KRas (IC50 nM) G12V, TR-FRET displacement, KRas G12V.

KRas G12V, sequence (P01116 1-169 isoform P01116-2 G12V): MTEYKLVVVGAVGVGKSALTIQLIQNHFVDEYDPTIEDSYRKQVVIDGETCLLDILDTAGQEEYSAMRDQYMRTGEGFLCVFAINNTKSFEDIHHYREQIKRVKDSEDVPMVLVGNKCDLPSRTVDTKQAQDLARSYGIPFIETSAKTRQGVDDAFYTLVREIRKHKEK
KRas G12D, sequence (P01116 1-169 isoform P01116-2 G12D): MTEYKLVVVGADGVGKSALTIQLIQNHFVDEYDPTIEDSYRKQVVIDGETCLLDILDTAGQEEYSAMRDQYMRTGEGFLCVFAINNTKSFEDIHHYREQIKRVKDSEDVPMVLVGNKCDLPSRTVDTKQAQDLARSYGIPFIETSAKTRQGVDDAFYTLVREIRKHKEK
KRas G12R, sequence (P01116 1-169 isoform P01116-2 G12R): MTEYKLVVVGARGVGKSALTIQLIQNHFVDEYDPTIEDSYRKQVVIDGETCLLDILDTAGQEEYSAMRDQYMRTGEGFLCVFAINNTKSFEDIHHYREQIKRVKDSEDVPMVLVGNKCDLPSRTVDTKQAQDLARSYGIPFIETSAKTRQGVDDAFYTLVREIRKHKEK

On to `CCc1c(F)ccc2cc(O)cc(N3CCc4c(nc(OC[C@@]56CCCN5C[C@H](F)C6)nc4N4CCCn5nc(P(C)(C)=O)cc5C4)C3)c12` [Example 350, (5-(7-(8-ethyl-7-fluoro-3-hydroxynaphthalen-1-yl)-2-(((2R,7aS)-2-fluorotetrahydro-1H-pyrrolizin-7a(5H)-yl)methoxy)-5,6,7,8-tetrahydropyrido[3,4-d]pyrimidin-4-yl)-5,6,7,8-tetrahydro-4H-pyrazolo[1,5-a][1,4]diazepin-2-yl)dimethylphosphine oxide], for which the IC50 was < 2 nM at KRas G12D; < 2 nM at KRas G12R; 105 nM in the experiment on ASPC1 cells; 178 nM with H727 cells; 10.9 nM in the experiment with MKN1 cells; > 10000 nM with PSN1 cells. In addition, the IC50 on KRas G12V was found to be 3 nM. Also, the inhibition at 0.1 µM in the experiment on H460 cells is 44%; with A549 cells, 23%; in the experiment with HCT116 cells, 10%; with H358 cells, 76%.
Turning to `CCc1c(F)ccc2cc(O)cc(N3CCc4c(nc(OC[C@@]56CCCN5C[C@H](F)C6)nc4N4CCCn5nc(CNC(=O)NC)cc5C4)C3)c12` [Example 352, 1-((5-(7-(8-ethyl-7-fluoro-3-hydroxynaphthalen-1-yl)-2-(((2R,7aS)-2-fluorohexahydro-1H-pyrrolizin-7a-yl)methoxy)-5,6,7,8-tetrahydropyrido[3,4-d]pyrimidin-4-yl)-5,6,7,8-tetrahydro-4H-pyrazolo[1,5-a][1,4]diazepin-2-yl)methyl)-3-methylurea], the 50% inhibitory concentration (IC50) was < 2 nM on KRas G12D; 2 nM on KRas G12R; 1820 nM in the experiment with ASPC1 cells; 1950 nM in the experiment with H727 cells; 1110 nM in the experiment with MKN1 cells; > 10000 nM in the experiment on PSN1 cells. Besides, the 50% inhibitory concentration (IC50) at KRas G12V was determined as 2 nM. Further, the inhibition at 0.1 µM with H460 cells is -4%; with A549 cells it was -15%; in the experiment on HCT116 cells, -2%; with H358 cells, -7%.
`CCc1c(F)ccc2cc(O)cc(N3CCc4c(nc(OC[C@@]56CCCN5C[C@H](F)C6)nc4N4CCCn5nc(CNC(C)=O)cc5C4)C3)c12` [Example 353, N-((5-(7-(8-ethyl-7-fluoro-3-hydroxynaphthalen-1-yl)-2-(((2R,7aS)-2-fluorohexahydro-1H-pyrrolizin-7a-yl)methoxy)-5,6,7,8-tetrahydropyrido[3,4-d]pyrimidin-4-yl)-5,6,7,8-tetrahydro-4H-pyrazolo[1,5-a][1,4]diazepin-2-yl)methyl)acetamide]: the half-inhibitory concentration (IC50) is < 2 nM on KRas G12D; 4 nM on KRas G12R; 400 nM with ASPC1 cells; 561 nM in the experiment with H727 cells; 516 nM in the experiment on MKN1 cells; > 10000 nM in the experiment on PSN1 cells. Also, the half-maximal inhibitory concentration (IC50) on KRas G12V stood at 3 nM. The inhibition at 0.1 µM in the experiment on H460 cells was -15%; with A549 cells, 26%; in the experiment with HCT116 cells, 6%; in the experiment on H358 cells, -10%.
In the case of `CCc1c(F)ccc2cc(O)cc(N3CCc4c(nc(OC[C@@]56CCCN5C[C@H](F)C6)nc4N4CCCn5nc(C(=O)N6[C@@H]7CNC[C@H]6C7)cc5C4)C3)c12` [Example 499, (1R,5S)-3,6-diazabicyclo[3.1.1]heptan-6-yl(5-(7-(8-ethyl-7-fluoro-3-hydroxynaphthalen-1-yl)-2-(((2R,7aS)-2-fluorohexahydro-1H-pyrrolizin-7a-yl)methoxy)-5,6,7,8-tetrahydropyrido[3,4-d]pyrimidin-4-yl)-5,6,7,8-tetrahydro-4H-pyrazolo[1,5-a][1,4]diazepin-2-yl)methanone], the IC50 at KRas G12D was < 2 nM; on KRas G12R, < 2 nM; with ASPC1 cells, 41 nM; in the experiment on H727 cells, 168 nM; in the experiment on MKN1 cells, 186 nM; in the experiment on PSN1 cells it was > 10000 nM. On KRas G12V, the IC50 was < 2 nM. In addition, the inhibition at 0.1 µM was 6% in the experiment with H460 cells; 25% in the experiment on A549 cells; 11% in the experiment with HCT116 cells; 47% with ASPC1 cells; 57% with H358 cells; 37% in the experiment on H727 cells.
As to `CCc1c(F)ccc2cc(O)cc(N3CCc4c(nc(OC[C@@]56CCCN5C[C@H](F)C6)nc4N4CCCn5nc(C(=O)N6CC7CC(C6)N(C)C7)cc5C4)C3)c12` (stereo partly drawn) [Example 500, (5-(7-(8-ethyl-7-fluoro-3-hydroxynaphthalen-1-yl)-2-(((2R,7aS)-2-fluorohexahydro-1H-pyrrolizin-7a-yl)methoxy)-5,6,7,8-tetrahydropyrido[3,4-d]pyrimidin-4-yl)-5,6,7,8-tetrahydro-4H-pyrazolo[1,5-a][1,4]diazepin-2-yl)(6-methyl-3,6-diazabicyclo[3.2.1]octan-3-yl)methanone], the IC50 on KRas G12D is < 2 nM; on KRas G12R it was < 2 nM; in the experiment on ASPC1 cells it was 25 nM; in the experiment on H727 cells it was 203 nM; in the experiment with MKN1 cells, 37.2 nM; with PSN1 cells, > 10000 nM. Further, the 50% inhibitory concentration (IC50) on KRas G12V was < 2 nM. Besides, the inhibition at 0.1 µM in the experiment with H460 cells was 22%; with A549 cells, 46%; in the experiment with HCT116 cells, 11%; with ASPC1 cells, 91%; in the experiment with H358 cells it was 74%; in the experiment with H727 cells, 20%.
As to `CCc1c(F)ccc2cc(O)cc(N3CCc4c(nc(OC[C@@]56CCCN5C[C@H](F)C6)nc4N4CCCn5nc(C(=O)N6CCC7CC6CN7C)cc5C4)C3)c12` (stereo partly drawn) [Example 501, (5-(7-(8-ethyl-7-fluoro-3-hydroxynaphthalen-1-yl)-2-(((2R,7aS)-2-fluorohexahydro-1H-pyrrolizin-7a-yl)methoxy)-5,6,7,8-tetrahydropyrido[3,4-d]pyrimidin-4-yl)-5,6,7,8-tetrahydro-4H-pyrazolo[1,5-a][1,4]diazepin-2-yl)(6-methyl-2,6-diazabicyclo[3.2.1]octan-2-yl)methanone], the IC50 was < 2 nM at KRas G12D; 2 nM on KRas G12R; 23 nM in the experiment with ASPC1 cells; 132 nM in the experiment on H727 cells; 41.2 nM in the experiment with MKN1 cells; > 10000 nM in the experiment on PSN1 cells. Also, the half-maximal inhibitory concentration (IC50) on KRas G12V was < 2 nM. The inhibition at 0.1 µM in the experiment on H460 cells was determined as 17%; in the experiment with A549 cells, 27%; in the experiment on HCT116 cells, 23%; with ASPC1 cells, 86%; in the experiment on H358 cells, 95%; in the experiment with H727 cells, 40%.
Take `CCc1c(F)ccc2cc(O)cc(N3CCc4c(nc(OC[C@@]56CCCN5C[C@H](F)C6)nc4N4CCCCn5nc(C(=O)NC(C)C)c(Cl)c5C4)C3)c12` [Example 506, 3-chloro-5-(7-(8-ethyl-7-fluoro-3-hydroxynaphthalen-1-yl)-2-(((2R,7aS)-2-fluorotetrahydro-1H-pyrrolizin-7a(5H)-yl)methoxy)-5,6,7,8-tetrahydropyrido[3,4-d]pyrimidin-4-yl)-N-isopropyl-4,5,6,7,8,9-hexahydropyrazolo[1,5-a][1,4] diazocine-2-carboxamide]: the IC50 at KRas G12D was < 2 nM; in the experiment on H460 cells (NCI-H460, 3 h, 3 hr compound incubation, Cisbio pERK HTRF), 81 nM; on KRas G12R, < 2 nM; in the experiment with A549 cells (A549, 3 h, 3 hr compound incubation, Cisbio pERK HTRF) it was 17 nM; in the experiment on HCT116 cells (HCT-116, 3 h, 3 hr compound incubation, Cisbio pERK HTRF), 298 nM; in the experiment on ASPC1 cells, 10 nM. The IC50 with H358 cells (NCI-H358, 3 h, 3 hr compound incubation, Cisbio pERK HTRF) is 4 nM; with H727 cells, 5 nM; with MKN1 cells, 9.9 nM; in the experiment on PSN1 cells it was 1090 nM; at KRas G12V, < 2 nM. For the same compound, the inhibition at 0.1 µM was found to be 71% in the experiment with H460 cells, 34% in the experiment on HCT116 cells, 97% with ASPC1 cells and 80% in the experiment on H727 cells.
